Assay results as given in US20070128586A1, “Therapeutic, prophylactic and diagnostic agents” (priority 2003, published 2007).

Assays:
[1] = Plasma endotoxin assay (chromogenic limulus amoebocyte lysate), cirrhotic patients; assay type: in vivo, human
[2] = test system: TNF-α; assay: Serum TNF-α assay (Quantikine HS immunoassay), cirrhotic patients; assay type: in vivo, human; conditions: Child-Pugh B/C patients, n = 7; controls 1.7, no lactulose 3.1
[3] = test system: sTNF RI (p55); assay: Serum sTNFR assay, sTNF RI (p55), cirrhotic patients; assay type: in vivo, human; conditions: Child-Pugh B/C patients, n = 7; controls 1643, no lactulose 3852
Method: (§1) Peripheral blood was drawn using pyrogen-free needles, syringes and containers (Becton-Dickinson, Singapore). Plasma and serum were separated in a refrigerated centrifuge at 4° C. and stored at −70° C. in pyrogen-free polyethylene cryotubes (Nunc, Denmark) until analysis within six weeks of collection. Whole blood was used for determination of TLR expression on peripheral blood monocytes. Serum sTNF RI (p55) and sTNF RII (p75) were measured using Quantikine HS Human sTNFR Immunoassays (R&D Systems Inc., Minneapolis, USA), according to the manufacturer's instructions.

[4] = test system: sTNF RII (p75); assay: Serum sTNFR assay, sTNF RII (p75), cirrhotic patients; assay type: in vivo, human; conditions: Child-Pugh B/C patients, n = 7; controls 2438, no lactulose 5933
Method: as §1

[5] = test system: TLR-2; assay: Flow cytometry for TLR-2 expression on CD14+ve peripheral blood monocytes, cirrhotic patients; assay type: in vivo, human; conditions: Child-Pugh B/C patients, n = 7; ratio of geometric mean fluorescence to mean control values
[6] = test system: TLR-4; assay: Flow cytometry for TLR-4 expression on CD14+ve peripheral blood monocytes, cirrhotic patients; assay type: in vivo, human; conditions: Child-Pugh B/C patients, n = 7; ratio of geometric mean fluorescence to mean control values
From the text: Isotype matched non-binding controls were used for comparison. Ten thousand CD14^+ve cells were acquired for each sample and dead cells were gated out based on their light scatter properties on FACSCaliber flow cytometer (Becton Dickinson, USA). At least two control patients were used for standardization purposes every flow cytometry session. TLR-2 and TLR-4 values were expressed as a ratio of the geometric mean fluorescence of individual study patients to mean control values for that session.

[7] = test system: PBMCs; assay: In vitro production of TNF-α by PBMCs stimulated with endotoxin; assay type: cell-based, human; conditions: Child-Pugh B/C patients, n = 7; endotoxin 10 ng/mL, 20 h; ratio stimulated to unstimulated cells
[8] = test system: PBMCs; assay: In vitro production of TNF-α by PBMCs stimulated with SEB; assay type: cell-based, human; conditions: Child-Pugh B/C patients, n = 7; SEB 10 ng/mL, 20 h; ratio stimulated to unstimulated cells
[9] = test system: HBV; assay: HBV DNA in chronic Hepatitis B patients (Cobas Amplicor HBV Monitor Test); assay type: in vivo, Hepatitis B virus; conditions: five CHB patients; fell from >200,000 following treatment with lamivudine
Method: Eighteen non-cirrhotic patients with chronic Hepatitis B (CHB) and on-going viral replication (HBV DNA >200,000 genomes/mL, n=12 and 200-10,000 genomes/mL, n=6; Cobas Amplicor HBV Monitor (trademark) Test, USA) and 32 healthy control subjects were studied. TLR-2 and TLR-4 expression on CD14^+ve peripheral blood mononuclear cells (PBMC's) was measured by flow cytometry using anti-CD14 (Becton Dickinson) and anti-TLR-2 and anti-TLR-4 (eBioscience, USA) monoclonal antibodies. TLR expression was reassessed in five patients in whom HBV DNA fell from >200,000 to <200 genomes/mL following treatment with lamivudine. In vitro TLR-2 expression by PBMCs was measured in five control subjects at baseline and following stimulation for 20 h by partially purified recombinant HBV. […] TLR-2 expression normalised in each of the five lamivudine-treated CHB patients in whom HBV DNA became undetectable. In vitro expression of TLR-2 fell in a concentration-dependent manner following exposure to recombinant HBV.

Row | SMILES | Plasma endotoxin, Median ([1]; Child-Pugh B/C patients, n = 7, controls 25, no lactulose 49) [pg/mL] | Plasma endotoxin values compared with control subjects ([1]; subgroup of Child-Pugh B and C patients treated with lactulose) | Serum TNF-α, Median [2] [pg/mL] | Serum soluble TNF receptor I, Median [3] [pg/mL] | Serum soluble TNF receptor II, Median [4] [pg/mL] | Expression of TLR-2 on CD14+ve PBMCs, Median [5] | Expression of TLR-4 on CD14+ve PBMCs, Median [6] | In vitro production of TNF-α by PBMCs in response to endotoxin, Median [7] | In vitro production of TNF-α by PBMCs in response to SEB, Median [8] | HBV DNA following treatment [9] [genomes/mL]
1 | OC[C@H]1O[C@@H](O[C@@H]2[C@@H](CO)OC(O)(CO)[C@H]2O)[C@H](O)[C@@H](O)[C@H]1O (mixture of isomers) [lactulose] | 13 | not significantly different from those in control subjects | 4.2 | 3878 | 5440 | 1.29 | 1.06 | 3.1 | 1.5 | –
2 | Nc1ccn([C@@H]2CS[C@H](CO)O2)c(=O)n1 [lamivudine] | – | – | – | – | – | – | – | – | – | < 200
